Data published in patent US12352767B2, “Method of treating cognitive decline associated with neurological diseases based on a decrease in FLT4 expression or activity” (University of Virginia Patent Foundation, priority 2018, dated 2025).
“Also recorded” adds a separate entry of the source.

Experiments:
[1] = test system: intracranial vasculature, blood-brain barrier, brain ventricles; details: mouse, in vivo
Experimental: All MRI acquisitions were performed at the University of Virginia Molecular Imaging Core facilities in a 7T Clinscan system (Bruker, Ettlingen, Germany) equipped with a 30 mm diameter cylindrical RF Coil. For analysis of mouse intracranial vascular structure, mice were placed in the 7T Clinscan system under light anaesthesia with isoflurane (1-1.25% in oxygen). Structural imaging data of intracranial arteries (magnetic resonance angiography or MRA) was acquired with a high-resolution 3D isotropic Spiral Cine Phase Contrast (SCPC) technique: repetition time (TR)=15 ms, echo time (TE)=0.63 ms, field of view (FOV)=25×25 mm, slice thickness=0.01 mm, number of sagittal slices=160, number of averages per phase-encode step (NEX)=1 and flip angle (FA)=20°. Total imaging time was of about 15 min per mouse. Structural imaging data of intracranial veins (magnetic resonance venography or MRV) was acquired with a high-resolution 3D isotropic SCPC technique with a saturation band positioned caudal to the slices, in order to saturate the arterial signal: TR=17 ms, TE=4.54 ms, FOV=17×26 mm, slice thickness=0.3 mm, number of sagittal slices=160, NEX=2 and FA=90°. Total imaging time was of about 13 min per mouse. Vascular volume and diameters were quantified using semi-automatic segmentation tools provided in the OsiriX software. For analysis of mouse brain ventricular volume, mice were placed in the 7T Clinscan system under light anaesthesia with isoflurane and structural imaging data were acquired with a high-resolution 3D isotropic T2-weighted SPACE technique with the following parameters: TR=3000 ms, TE=139 ms, FOV=26×20.5 mm, slice thickness=0.13 mm, number of slices=160 and NEX=3, requiring a total acquisition time of about 16 min per mouse. Ventricular volumes were quantified using semi-automatic segmentation tools provided in the OsiriX software.
Initially, a pre-contrast image was acquired after placing the mice in the 7T Clinscan system under light anaesthesia with isoflurane. Gadobenate dimeglumine (gadolinium or Gd, MultiHance, Bracco Diagnostics, Princeton, New Jersey) at 0.3 mmol/kg was then injected intravenously (i.v.), through a catheter inserted in the tail vein. To assess the rate of influx of a CSF tracer into the brain, mice were anaesthetized by i.p. injection of ketamine and xylazine in saline and an i.c.m. injection of 5 μL of Gd at a concentration of 25 mM in saline was performed. […] The mice were placed in the MRI apparatus and maintained under light anaesthesia with isoflurane. For MRI acquisition, maximum gradient strength of the system was 500 mT/m and the peak slew rate achievable was 6667 mT/m/ms. After i.v. injection of Gd or 10 min after injecting gadolinium into the CSF, a series of post-contrast T1-weighted images were taken through the head with the following parameters: TR=500 ms, TE=11 ms, FOV=20×20 mm with a 192×192 matrix (104 μm×104 μm resolution), slice thickness=0.7 mm, number of slices=22 and NEX=2. For i.v. Gd injection 5 post-contrast images were acquired requiring about 16 min per mouse (each sequence taken every 194 s). For brain influx of Gd injected into the CSF, the total acquisition time was of about 52 min per mouse (194 s×16 sequences per mouse), meaning that T1 images were acquired for approximately 1 hour post-injection.

[2] = test system: hippocampal transcriptome; test: RNA-seq of whole hippocampus after meningeal lymphatic ablation (Table 2, Table 3); type: in vivo, mice
Experimental: After defrosting in ice, samples were mechanically dissociated in extraction buffer and RNA was isolated using the kit components according to the manufacturer's instructions (RNeasy mini kit, cat. no. 74106, Qiagen). The Illumina TruSeq Stranded Total RNA Library Prep Kit was used for cDNA library preparation from total RNA samples. Sample quality control was performed on an Agilent 4200 TapeStation Instrument, using the Agilent D1000 kit, and on the Qubit Fluorometer (Thermo Fisher Scientific). For RNA sequencing (RNA-seq), libraries were loaded on to a NextSeq 500 (Illumina) using an Illumina NextSeq High Output (150 cycle) cartridge (#FC-404-2002).
The raw sequencing reads (FASTQ files) were first chastity filtered, which removes any clusters that have a higher than expected intensity of the called base compared to other bases. The quality of the reads was then evaluated using FastQC^57, and after passing quality control (QC), the expression of the transcripts was quantified against the UCSC mm10 genome^58 using Salmon^59. These transcript abundances were then imported into R and summarized with tximport^60, and then DESeq2^61 was used to normalize the raw counts, perform exploratory analysis (e.g., principal component analysis), and to perform differential expression (DE) analysis. Before DE analysis of the meningeal LECs from adult vs old mice dataset, surrogate variable analysis^62 (SVA) was used to identify and adjust for latent sources of unwanted variation as implemented in the SVA package^63. The P-values from the DE analysis were corrected for multiple hypothesis testing with the Benjamini-Hochberg false discovery rate procedure (adj. P-value). Functional enrichment of DE genes, using gene sets from Gene Ontology (GO) and Kyoto Encyclopedia of Genes and Genomes (KEGG), was determined with Fisher's exact test as implemented in the clusterProfiler^64 Bioconductor package. Heatmaps of the DE genes and enriched gene sets were generated with the R package pheatmap^65. Normalized counts of selected transcripts were used to calculate the fold change relative to respective controls.

mice = test: Morris water maze test; type: in vivo; details: Visudyne/photoconversion twice, adult mice
Experimental: The Morris water maze test was performed as described before^53, but with modifications. Mice were transported to the behavior room to habituate at least 30 min before starting the test. The MWM test consisted of 4 days of acquisition, 1 day of probe trial and 2 days of reversal. In the acquisition, mice performed four trials per day, for 4 consecutive days, to find a hidden 10-cm diameter platform located 1 cm below the water surface in a pool 1 m in diameter. Tap water was made opaque with nontoxic tempera white paint and the water temperature was kept at 23±1° C. A dim light source was placed within the testing room and only distal visual cues were available above each quadrant of the swimming pool to aid in the spatial navigation and location of the submerged platform. The latency to platform, e.g., the time required by the mouse to find and climb onto the platform, was recorded for up to 60 s. Each mouse was allowed to remain on the platform for 20 s and was then moved from the maze to its home cage. […] During the acquisition, probe and reversal, data were recorded using the EthoVision automated tracking system (Noldus Information Technology). The mean latency (in s) of the four trials was calculated for each day of test. The % of time in the platform quadrant was calculated for the probe trial. […] The mean % of allocentric navigation of four trials was calculated for each day.

[3] = test system: meningeal lymphatic drainage; test: Drainage of CSF tracer (OVA-A647) into deep cervical lymph nodes; type: in vivo, mice; details: 7 days after Visudyne/photoconversion, 2 h after i.c.m. tracer, vs control groups
Experimental: (§1) Mice were anaesthetized by intraperitoneal (i.p.) injection of a mixed solution of ketamine (100 mg/Kg) and xylazine (10 mg/Kg) in saline. The skin of the neck was shaved and cleaned with iodine and 70% ethanol, ophthalmic solution placed on the eyes to prevent drying and the mouse's head was secured in a stereotaxic frame. After making a skin incision, the muscle layers were retracted and the cisterna magna exposed. Using a Hamilton syringe (coupled to a 33-gauge needle), the volume of the desired tracer solution was injected into the CSF-filled cisterna magna compartment. For brain CSF influx and lymphatic drainage experiments, 2 or 5 μL of Alexa Fluor® 594 or 647 conjugated OVA (Thermo Fisher Scientific), at 0.5 mg/mL in artificial CSF (#597316, Harvard Apparatus U.K.), were injected at a rate of 2.5 μL/min. After injecting, the syringe was left in place for additional 2 min to prevent back-flow of CSF.

brain parenchyma = test: Brain perfusion/influx by CSF tracer OVA-A647 (brain sections); type: in vivo, mice; details: 7 days after Visudyne/photoconversion, vs control groups
Experimental: as §1

[4] = after meningeal lymphatic ablation (Visudyne/photoconversion) and MWM

## verteporfin [Visudyne]
[1]
  arterial vessel volume: no significant changes between groups
  basilar artery diameter: no significant changes between groups
  structure of major intracranial veins and arteries: not altered
  superior sagittal sinus (SSS) diameter: no significant changes between groups
  venous vessel volume: no significant changes between groups
[2]; [4]
  number of genes down-regulated in the hippocampus: 2138 genes
  number of genes up-regulated in the hippocampus: 1599 genes
[2]; four weeks of meningeal lymphatic ablation, Visudyne/photoconversion vs vehicle/photoconversion
  hippocampal transcriptome (RNA-seq principal component analysis) without MWM: did not induce significant changes; also recorded: did not show a differential clustering
[2]; prolonged meningeal lymphatic ablation, Visudyne/photoconversion vs vehicle/photoconversion
  hippocampal gene expression (RNA-seq) after MWM performance: significant differences in hippocampal gene expression; also recorded: differential clustering
mice
  MWM spatial learning: significant deficits in spatial learning
[3]
  OVA-A647 drainage from CSF into dCLNs (area fraction): significant reduction; also recorded: significantly less amount of tracer
Brain parenchyma
  brain perfusion by CSF tracer (OVA-A647 area fraction in brain sections): significantly lower; also recorded: significant decrease
